{"source": "patent US20180251431A1", "about": "(VERTEX PHARMACEUTICALS INCORPORATED, priority 2016, published 2018)"}
{"test_system": "HEK293 cells", "test": "HEK293 VLCFA-LPC IC50 determination (13C-labeled C26:0 LPC by UHPLC/MS)", "format": "cell-based, human", "conditions": "Homo sapiens, HEK293, 48 h, average of one or more replicates; 13C-labeled C26:0 LPC, 48 hours; read-out: Average HEK293 IC50", "how_it_was_run": "(§1)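 Suspension HEK293 cells (final 0.5 million/mL after mixing with equal volume) incubated 48 hours with compound plus 13C-acetate (1.0 mg/mL in added media), shaking at 37° C. Lipids extracted with hexane/isopropanol or methanol, C13:0 LPC standard. UHPLC/MS of 13C-labeled C26:0 LPC (638.500/104.100 m/z); IC50 by four-parameter fit.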", "units": {"IC50": "nM"}}
{"smiles": "CC(C)(C)c1ncc(-n2ccc(NC(=O)C3(c4ccccc4F)CC3)n2)cn1", "note": "[Compound 383, N-[1-(2-tert-butylpyrimidin-5-yl)pyrazol-3-yl]-1-(2-fluorophenyl)cyclopropanecarboxamide]", "IC50": "> 5000"}
{"smiles": "Cc1cc(-n2ccc(NC(=O)C3(c4ccccc4F)CC3)n2)c(C)cn1", "note": "[Compound 350, N-[1-(2,5-dimethyl-4-pyridyl)pyrazol-3-yl]-1-(2-fluorophenyl)cyclopropanecarboxamide]", "IC50": "> 5000"}
{"smiles": "Cc1ncc(-n2ccc(NC(=O)C3(c4ccccc4F)CC3)n2)cc1F", "note": "[Compound 349, N-[1-(5-fluoro-6-methyl-3-pyridyl)pyrazol-3-yl]-1-(2-fluorophenyl)cyclopropanecarboxamide]", "IC50": 440}
{"smiles": "O=C(Nc1ccn(-c2ccc(O)c(F)c2)n1)C1(c2ccccc2F)CC1", "note": "[Compound 355, N-[1-(3-fluoro-4-hydroxy-phenyl)pyrazol-3-yl]-1-(2-fluorophenyl)cyclopropanecarboxamide]", "IC50": 1700}
{"smiles": "O=C(Nc1ccn(-c2cc(F)c(O)c(F)c2)n1)C1(c2ccccc2F)CC1", "note": "[Compound 357, N-[1-(3,5-difluoro-4-hydroxy-phenyl)pyrazol-3-yl]-1-(2-fluorophenyl)cyclopropanecarboxamide]", "IC50": "> 5000"}
{"smiles": "O=C(Nc1ccn(-c2cnnc(O)c2)n1)C1(c2ccccc2F)CC1", "note": "[Compound 356, 1-(2-fluorophenyl)-N-[1-(6-hydroxypyridazin-4-yl)pyrazol-3-yl]cyclopropanecarboxamide]", "IC50": "> 5000"}
{"test_system": "HEK293 cells", "test": "HEK293 VLCFA-LPC IC50 determination (13C-labeled C26:0 LPC by UHPLC/MS)", "format": "cell-based, human", "conditions": "Homo sapiens, HEK293, HEK293 cells; average of one or more replicates; read-out: Average HEK293 IC50", "how_it_was_run": "as §1", "units": {"IC50": "nM"}}
{"smiles": "O=C(Cc1ccc(F)cc1)Nc1ccn(-c2ncccc2F)n1", "note": "[Compound 88, 2-(4-fluorophenyl)-N-[1-(3-fluoro-2-pyridyl)pyrazol-3-yl]acetamide]", "IC50": "> 5000"}
{"smiles": "COc1cccc(CC(=O)Nc2ccn(-c3ccccc3)n2)c1OC", "note": "[Compound 7, 2-(2,3-dimethoxyphenyl)-N-(1-phenylpyrazol-3-yl)acetamide]", "IC50": "> 5000"}
{"smiles": "O=C(Cc1cncnc1)Nc1ccn(-c2ccnc(F)c2)n1", "note": "[Compound 236, N-[1-(2-fluoro-4-pyridyl)pyrazol-3-yl]-2-pyrimidin-5-yl-acetamide]", "IC50": "> 5000"}
{"smiles": "Cc1ncccc1-n1ccc(NC(=O)C2(c3ccccc3F)CC2)n1", "note": "[Compound 471, 1-(2-fluorophenyl)-N-[1-(2-methyl-3-pyridyl)pyrazol-3-yl]cyclopropanecarboxamide]", "IC50": "> 5000"}
{"smiles": "[2H]C1([2H])C([2H])([2H])C1(C(=O)Nc1ccn(-c2ccnc(F)c2)n1)c1ccccc1F", "note": "[Compound 276, 2,2,3,3-tetradeuterio-1-(2-fluorophenyl)-N-[1-(2-fluoro-4-pyridyl)pyrazol-3-yl]cyclopropanecarboxamide]", "IC50": 11}
{"smiles": "CC(C)(C(=O)Nc1ccn(-c2ccccc2)n1)c1ccccc1F", "note": "[Compound 296, 2-(2-fluorophenyl)-2-methyl-N-(1-phenylpyrazol-3-yl)propanamide]", "IC50": 1700}
{"smiles": "CNc1ncc(-n2ccc(NC(=O)C3(c4ccccc4F)CC3)n2)cc1F", "note": "[Compound 431, N-[1-[5-fluoro-6-(methylamino)-3-pyridyl]pyrazol-3-yl]-1-(2-fluorophenyl)cyclopropanecarboxamide]", "IC50": 860}
{"smiles": "O=C(Cc1ccccc1F)Nc1ccn(-c2ccnc(F)c2)n1", "note": "[Compound 203, 2-(2-fluorophenyl)-N-[1-(2-fluoro-4-pyridyl)pyrazol-3-yl]acetamide]", "IC50": 100}
{"smiles": "O=C(Cn1cccc1)Nc1ccn(-c2ccnc(F)c2)n1", "note": "[Compound 295, N-[1-(2-fluoro-4-pyridyl)pyrazol-3-yl]-2-pyrrol-1-yl-acetamide]", "IC50": "> 5000"}
{"smiles": "O=C(Cc1ccsc1)Nc1ccn(-c2ccccc2)n1", "note": "[Compound 5, N-(1-phenylpyrazol-3-yl)-2-(3-thienyl)acetamide]", "IC50": 410}
{"smiles": "Cn1cnnc1-n1ccc(NC(=O)C2(c3ccccc3F)CC2)n1", "note": "[Compound 427, 1-(2-fluorophenyl)-N-[1-(4-methyl-1,2,4-triazol-3-yl)pyrazol-3-yl]cyclopropanecarboxamide]", "IC50": "> 2000"}
{"smiles": "O=C(Nc1ccn(-c2ccccc2)n1)C1(c2ccccc2Cl)CC1", "note": "[Compound 24, 1-(2-chlorophenyl)-N-(1-phenylpyrazol-3-yl)cyclopropanecarboxamide]", "IC50": 41}
{"smiles": "COc1cc(-n2ccc(NC(=O)C3(c4ccccc4F)CC3)n2)ccn1", "note": "[Compound 259, 1-(2-fluorophenyl)-N-(1-(2-methoxypyridin-4-yl)-1H-pyrazol-3-yl)cyclopropane-1-carboxamide]", "IC50": 51}
{"smiles": "O=C(Nc1ccn(-c2ccc(C(F)(F)F)cc2)n1)C1(c2ccccc2)CC1", "note": "[Compound 156, 1-phenyl-N-[1-[4-(trifluoromethyl)phenyl]pyrazol-3-yl]cyclopropanecarboxamide]", "IC50": "> 2000"}
{"smiles": "O=C(Nc1ccn(-c2ccnnc2)n1)C1(c2ccccc2F)CC1", "note": "[Compound 202, 1-(2-fluorophenyl)-N-(1-pyridazin-4-ylpyrazol-3-yl)cyclopropanecarboxamide]", "IC50": 95}
{"smiles": "O=C(Nc1ccn(-c2ccccc2)n1)C1(c2ccccc2)CC1", "note": "[Compound 2, 1-phenyl-N-(1-phenyl-1H-pyrazol-3-yl)cyclopropane-1-carboxamide]", "IC50": 20}
{"smiles": "O=C(Cc1ccccc1F)Nc1ccn(-c2cccnc2)n1", "note": "[Compound 235, 2-(2-fluorophenyl)-N-[1-(3-pyridyl)pyrazol-3-yl]acetamide]", "IC50": 320}
{"smiles": "Cc1cc(-n2ccc(NC(=O)C3(c4ccccc4F)CC3)n2)ccn1", "note": "[Compound 113, 1-(2-fluorophenyl)-N-[1-(2-methyl-4-pyridyl)pyrazol-3-yl]cyclopropanecarboxamide]", "IC50": 1600}
{"smiles": "COc1ccncc1-n1ccc(NC(=O)C2(c3ccccc3F)CC2)n1", "note": "[Compound 469, 1-(2-fluorophenyl)-N-[1-(4-methoxy-3-pyridyl)pyrazol-3-yl]cyclopropanecarboxamide]", "IC50": "> 2000"}
{"smiles": "O=C(Nc1ccn(-c2ccnc(OC(F)F)c2)n1)C1(c2ccccc2F)CC1", "note": "[Compound 395, N-(1-(2-(difluoromethoxy)pyridin-4-yl)-1H-pyrazol-3-yl)-1-(2-fluorophenyl)cyclopropane-1-carboxamide]", "IC50": "> 5000"}
{"smiles": "O=C(Nc1ccn(-c2cc(F)cc(F)c2)n1)C1(c2ncccn2)CC1", "note": "[Compound 534, N-[1-(3,5-difluorophenyl)pyrazol-3-yl]-1-pyrimidin-2-yl-cyclopropanecarboxamide]", "IC50": "> 5000"}
{"smiles": "O=C(Nc1ccn(-c2ccncc2)n1)C1(c2ccccc2)CC1(F)F", "note": "(racemic) [Compound 419, 2,2-difluoro-1-phenyl-N-(1-(pyridin-4-yl)-1H-pyrazol-3-yl)cyclopropane-1-carboxamide]", "IC50": 240}
{"smiles": "O=C(Nc1ccn(-c2ccc(OC(F)F)nc2)n1)C1(c2ccccc2F)CC1", "note": "[Compound 409, N-[1-[6-(difluoromethoxy)-3-pyridyl]pyrazol-3-yl]-1-(2-fluorophenyl)cyclopropanecarboxamide]", "IC50": "> 5000"}
{"smiles": "CCOc1ccc(CC(=O)Nc2ccn(-c3ccccc3)n2)cc1", "note": "[Compound 47, 2-(4-ethoxyphenyl)-N-(1-phenylpyrazol-3-yl)acetamide]", "IC50": "> 5000"}
{"smiles": "Cc1cnn(CC(=O)Nc2ccn(-c3ccccc3)n2)c1", "note": "[Compound 290, 2-(4-methylpyrazol-1-yl)-N-(1-phenylpyrazol-3-yl)acetamide]", "IC50": "> 5000"}
{"smiles": "CCC(C(=O)Nc1ccn(-c2ccnc(F)c2)n1)c1ccccc1", "note": "(stereo not shown) [Compound 171, N-[1-(2-fluoro-4-pyridyl)pyrazol-3-yl]-2-phenyl-butanamide]", "IC50": 140}
{"smiles": "O=C(Cc1ccccc1)Nc1ccn(-c2cccc(Cl)c2)n1", "note": "[Compound 121, N-[1-(3-chlorophenyl)pyrazol-3-yl]-2-phenyl-acetamide]", "IC50": 650}
{"smiles": "O=C(Cc1ccccc1F)Nc1ccn(-c2cncc(F)c2)n1", "note": "[Compound 204, 2-(2-fluorophenyl)-N-[1-(5-fluoro-3-pyridyl)pyrazol-3-yl]acetamide]", "IC50": 97}
{"smiles": "O=C(Nc1ccn(-c2cncc(OC(F)F)c2)n1)C1(c2cnccn2)CC1", "note": "[Compound 496, N-[1-[5-(difluoromethoxy)-3-pyridyl]pyrazol-3-yl]-1-pyrazin-2-yl-cyclopropanecarboxamide]", "IC50": "> 5000"}
{"smiles": "O=C(Nc1ccn(-c2cc(F)cc(F)c2)n1)C1(c2ncccc2F)CC12CC2", "note": "(stereo not shown) [Compound 524, N-[1-(3,5-difluorophenyl)pyrazol-3-yl]-2-(3-fluoro-2-pyridyl)spiro[2.2]pentane-2-carboxamide]", "IC50": 1500}
{"smiles": "COc1cccc(CC(=O)Nc2ccn(-c3ccccc3)n2)c1", "note": "[Compound 46, 2-(3-methoxyphenyl)-N-(1-phenylpyrazol-3-yl)acetamide]", "IC50": "> 5000"}
{"smiles": "Cn1ccc(-n2ccc(NC(=O)C3(c4ccccc4F)CC3)n2)n1", "note": "[Compound 229, 1-(2-fluorophenyl)-N-[1-(1-methylpyrazol-3-yl)pyrazol-3-yl]cyclopropanecarboxamide]", "IC50": 3500}
{"smiles": "O=C(Cc1c(Cl)cccc1Cl)Nc1ccn(-c2ccccc2)n1", "note": "[Compound 70, 2-(2,6-dichlorophenyl)-N-(1-phenylpyrazol-3-yl)acetamide]", "IC50": "> 2000"}
{"smiles": "COc1ccnc(-n2ccc(NC(=O)C3(c4ccccc4F)CC3)n2)c1", "note": "[Compound 501, 1-(2-fluorophenyl)-N-[1-(4-methoxy-2-pyridyl)pyrazol-3-yl]cyclopropanecarboxamide]", "IC50": "> 5000"}
{"smiles": "O=C(Nc1ccn(-c2ccncc2)n1)C1(c2cccs2)CC1", "note": "[Compound 482, N-[1-(4-pyridyl)pyrazol-3-yl]-1-(2-thienyl)cyclopropanecarboxamide]", "IC50": 39}
{"smiles": "O=C(Nc1ccn(-c2ccccc2)n1)C1(c2ncccc2F)CC1", "note": "[Compound 281, 1-(3-fluoro-2-pyridyl)-N-(1-phenylpyrazol-3-yl)cyclopropanecarboxamide]", "IC50": 58}
{"test_system": "HEK293 cells", "test": "HEK293 VLCFA-LPC IC50 determination (13C-labeled C26:0 LPC by UHPLC/MS)", "format": "cell-based, human", "conditions": "average of one or more replicates; 13C-labeled C26:0 LPC, 48 hours; read-out: Average HEK293 IC50", "how_it_was_run": "as §1", "units": {"IC50": "nM"}}
{"smiles": "O=C(Nc1ccn(-c2cncc(F)c2)n1)C1(c2ccccc2)CC1(F)F", "note": "(single isomer, unassigned) [Compound 435]", "IC50": 60}
